Test systems include NCI-H23 lung; SK-MEL-28 melanoma; MDA-MB-435; IGROV1 ovarian; SN12C renal; SNB-19 CNS; OVCAR-4 ovarian; ACHN renal.
Holding throughout (test): NCI-60 cell line screen, 48 h

The values below come from PubChem BioAssay (NCI).

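Following 48 hours of exposure in 96-well plates, responses at five concentrations were used to interpolate endpoints linearly. TGI is the concentration that stops growth completely.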

For `CCCCOc1c(C(=O)O)cc(Br)cc1C(=O)O`, the TGI in the assay with NCI-H23 lung, with SK-MEL-28 melanoma, in the assay with MDA-MB-435, in the assay on IGROV1 ovarian, in the assay on SN12C renal and in the assay on SNB-19 CNS was more than 100 µM throughout. Further, the TGI in the assay with OVCAR-4 ovarian and in the assay with ACHN renal was more than 100 µM in each case.

On to `CCCCC(=C=C(C)CO)C1CCCN1C(=O)OC(C)(C)C` (centres undefined), for which the TGI was determined as 46.8 µM with NCI-H23 lung; 36 µM with SK-MEL-28 melanoma; 35.8 µM in the assay with MDA-MB-435; 43.6 µM with IGROV1 ovarian; 31.5 µM in the assay on SN12C renal; 60.2 µM in the assay on SNB-19 CNS. The TGI in the assay with OVCAR-4 ovarian came to 39.3 µM; in the assay on ACHN renal, 68.2 µM.

Turning to `Cc1nc(N)sc1C(=O)Nc1ncn[nH]1`, the TGI with NCI-H23 lung, in the assay with SK-MEL-28 melanoma, with MDA-MB-435, with IGROV1 ovarian, in the assay with SN12C renal and in the assay on SNB-19 CNS was more than 100 µM each time. Besides, the TGI in the assay with OVCAR-4 ovarian and in the assay on ACHN renal was more than 100 µM in each case.

In the case of `O=C(N/N=C\c1cccs1)c1ccncc1`, the TGI in the assay on NCI-H23 lung, in the assay on SK-MEL-28 melanoma, in the assay on MDA-MB-435, in the assay on IGROV1 ovarian, in the assay with SN12C renal and with SNB-19 CNS was more than 100 µM in each case. The TGI with OVCAR-4 ovarian and with ACHN renal was more than 100 µM each time.

In the case of `COC(=O)CCCC1(CCCC(=O)OC)CCCCCCCCC(CCCC(=O)OC)(CCCC(=O)OC)C(=O)C1=O`, the TGI with NCI-H23 lung was 47.9 µM; in the assay on SK-MEL-28 melanoma, more than 100 µM; in the assay with MDA-MB-435, more than 100 µM; in the assay on IGROV1 ovarian it was 47.6 µM; in the assay on SN12C renal, more than 100 µM; with SNB-19 CNS it was more than 100 µM. Moreover, the TGI in the assay on OVCAR-4 ovarian is 54.7 µM; in the assay on ACHN renal, more than 100 µM.

With `C[C@@H](NC(=O)[C@@H]1C[C@]1(C)CO)c1cccc2ccccc12`, the TGI with NCI-H23 lung, with SK-MEL-28 melanoma, in the assay on MDA-MB-435, in the assay with IGROV1 ovarian, in the assay on SN12C renal and in the assay with SNB-19 CNS was more than 100 µM each time. Also, the TGI in the assay on OVCAR-4 ovarian and in the assay with ACHN renal was more than 100 µM throughout.

`N#C/C=c1/c2ccccc2n2nc3ccccc3c12`: the TGI in the assay on NCI-H23 lung is 59.2 µM; in the assay with SK-MEL-28 melanoma it was more than 100 µM; in the assay with MDA-MB-435, more than 100 µM; in the assay with IGROV1 ovarian, 58.3 µM; with SN12C renal, more than 100 µM; in the assay with SNB-19 CNS, 40 µM. Moreover, the values for the TGI in the assay on OVCAR-4 ovarian and with ACHN renal were 31.5 µM and 27.9 µM, respectively.

Take `O=C1C(C(c2ccc([N+](=O)[O-])cc2)N2CCOCC2)=C(O)C(c2ccccc2)N1c1ccccc1` (centres undefined): the TGI with NCI-H23 lung, in the assay on SK-MEL-28 melanoma, with MDA-MB-435, with IGROV1 ovarian, in the assay with SN12C renal and in the assay on SNB-19 CNS was more than 10 µM in each case. Also, the TGI in the assay on OVCAR-4 ovarian and in the assay with ACHN renal was more than 10 µM throughout.

Consider `C[C@]12C(=O)C=CCC1=CC[C@@H]1[C@@H]2[C@H]2CC3(O)C(=O)O[C@@]4(C)[C@H]5C[C@@]6(C)[C@@H]7[C@@]2(O)[C@]1(OC[C@H]6C(=O)O5)O[C@]734` (some centres undefined), for which the TGI in the assay with NCI-H23 lung was 54.6 µM; with SK-MEL-28 melanoma it was more than 100 µM; with MDA-MB-435, more than 100 µM; in the assay on IGROV1 ovarian, more than 100 µM; in the assay with SN12C renal it was more than 100 µM; with SNB-19 CNS it was more than 100 µM. Also, the TGI in the assay with OVCAR-4 ovarian and in the assay on ACHN renal was more than 100 µM throughout.

`Cc1ccc(/C(O)=C/c2nc3cccnc3[nH]c2=O)cc1`: the TGI with NCI-H23 lung, in the assay on SK-MEL-28 melanoma, in the assay with MDA-MB-435, with IGROV1 ovarian, in the assay on SN12C renal and in the assay with SNB-19 CNS was more than 100 µM throughout. Also, the TGI in the assay on OVCAR-4 ovarian and with ACHN renal was more than 100 µM each time.

Regarding `CC(=O)OC12CC(C(F)(F)F)(C(F)(F)F)OC1(OC(C)=O)CC(C(F)(F)F)(C(F)(F)F)O2` (centres undefined), the TGI is 8.71 µM in the assay with NCI-H23 lung; more than 100 µM in the assay on SK-MEL-28 melanoma; more than 100 µM in the assay with MDA-MB-435; more than 100 µM with IGROV1 ovarian; more than 100 µM in the assay with SN12C renal; more than 100 µM with SNB-19 CNS. In addition, the results for the TGI in the assay with OVCAR-4 ovarian and in the assay on ACHN renal were more than 100 µM and 2.38 µM, respectively.

For the compound `COc1ccc(OC)c(NC2=NCCO2)c1`, the TGI in the assay on NCI-H23 lung is more than 100 µM; in the assay on SK-MEL-28 melanoma, more than 100 µM; with MDA-MB-435 it was more than 100 µM; in the assay on IGROV1 ovarian, more than 100 µM; in the assay with SN12C renal, more than 100 µM; with SNB-19 CNS, 22.7 µM. Also, the TGI with OVCAR-4 ovarian and with ACHN renal was more than 100 µM in each case.

`O=C(CNc1nccs1)Nn1cnc2ccc(S(=O)(=O)Nc3nccs3)cc2c1=O`: the TGI in the assay on NCI-H23 lung, in the assay on SK-MEL-28 melanoma, in the assay with MDA-MB-435, in the assay on IGROV1 ovarian, in the assay on SN12C renal and in the assay with SNB-19 CNS was more than 100 µM each time. For the same compound, the TGI in the assay with OVCAR-4 ovarian and with ACHN renal was more than 100 µM each time.
